Data taken from patent US20260234135A1, “CRYSTALLINE FORMS OR SALTS OF A DEUTERATED COMPOUND” (ALEBUND PHARMACEUTICALS (HONG KONG) LIMITED, priority 2023, published 2026).
Like-named read-outs stand apart in the source and are kept apart here.

How the values were obtained:
[1] = Hygroscopicity evaluation by DVS at 25° C.; format: physicochemical; settings: for Form change after DVS test: XRPD after DVS
Method: DVS was measured via a SMS (Surface Measurement Systems) DVS Intrinsic. The relative humidity at 25° C. were calibrated against deliquescence point of LiCl, Mg(NO3)2 and KCl.

[2] = for Form or purity change after storage: 60° C./close and 40° C./75% RH/open for 2/4/8 weeks

| SMILES | Water uptake up to 80% RH ([1]; DVS, 25° C.) [%] | Form change after DVS test [1] | Area (%) of impurity peak RRT 1.34 ([2]; 40° C./75% RH, 2 weeks) [%] | Area (%) of impurity peak RRT 1.34 ([2]; 40° C./75% RH, 4 weeks) [%] | Area (%) of impurity peak RRT 1.34 ([2]; 40° C./75% RH, 8 weeks) [%] | HPLC Purity (area %), main peak RRT 1.00 ([2]; 40° C./75% RH/open, 2 weeks) [area %] | HPLC Reults of initial (%) ([2]; 40° C./75% RH/open, 2 weeks) | HPLC Purity (area %), main peak RRT 1.00 ([2]; 40° C./75% RH/open, 4 weeks) [area %] | HPLC Reults of initial (%) ([2]; 40° C./75% RH/open, 4 weeks) | HPLC Purity (area %), main peak RRT 1.00 ([2]; 40° C./75% RH/open, 8 weeks) [area %] | HPLC Reults of initial (%) ([2]; 40° C./75% RH/open, 8 weeks) | Area (%) of impurity peak RRT 0.88 ([2]; 60° C., 2 weeks) [%] | Area (%) of impurity peak RRT 1.34 ([2]; 60° C., 2 weeks) [%] | Area (%) of impurity peak RRT 0.88 ([2]; 60° C., 4 weeks) [%] | Area (%) of impurity peak RRT 1.34 ([2]; 60° C., 4 weeks) [%] | Area (%) of impurity peak RRT 0.88 ([2]; 60° C., 8 weeks) [%] | Area (%) of impurity peak RRT 1.34 ([2]; 60° C., 8 weeks) [%] | Form or purity change after storage [2] | HPLC Purity (area %), main peak RRT 1.00 ([2]; 60° C./close, 2 weeks) [area %] | HPLC Reults of initial (%) ([2]; 60° C./close, 2 weeks) | also measured |
| --- | --- | --- | --- | --- | --- | --- | --- | --- | --- | --- | --- | --- | --- | --- | --- | --- | --- | --- | --- | --- | --- |
| N=C(N)NCCCC(N)C(=O)O.[2H]C([2H])(Cc1nc(-c2ccccc2)oc1C)Oc1ccc(C[C@H](OC)C(=O)O)c2sccc12 [arginine salt Form A] | 0.5 | No form change | 0.22 | 0.19 | 0.19 | 99.59 | 99.87 | 99.70 | 99.98 | 99.74 | 100.02 | 0.06 | 0.18 | 0.09 | 0.18 | 0.06 | 0.18 | No form or purity decrease | 99.76 | 100.04 | Hygroscopicity ([1]; DVS, 25° C.): slightly hygroscopicity; Area (%) of impurity peak RRT 0.88 ([2]; 40° C./75% RH, 2 weeks): 0.14%; Area (%) of impurity peak RRT 1.14 ([2]; 40° C./75% RH, 2 weeks): 0.06%; Area (%) of impurity peak RRT 0.88 ([2]; 40° C./75% RH, 4 weeks): 0.11%; Area (%) of impurity peak RRT 0.88 ([2]; 40° C./75% RH, 8 weeks): 0.07%; Area (%) of impurity peak RRT 0.81 ([2]; 60° C., 8 weeks): 0.05%; HPLC Purity (area %), main peak RRT 1.00 ([2]; 60° C./close, 4 weeks): 99.73 area %; HPLC Reults of initial (%) ([2]; 60° C./close, 4 weeks): 100.01%; HPLC Purity (area %), main peak RRT 1.00 ([2]; 60° C./close, 8 weeks): 99.71 area %; HPLC Reults of initial (%) ([2]; 60° C./close, 8 weeks): 99.99%; Area (%) of impurity peak RRT 0.88 ([2]; Initial): 0.07%; Area (%) of impurity peak RRT 1.34 ([2]; Initial): 0.20%; HPLC Purity (area %), main peak RRT 1.00 ([2]; Initial): 99.72 area % |
| [2H]C([2H])(Cc1nc(-c2ccccc2)oc1C)Oc1ccc(C[C@H](OC)C(=O)[O-])c2sccc12.[K+] [K salt Form C] | 12.0 | form change was observed | 0.24 | 0.25 | 0.25 | 99.76 | 100.01 | 99.75 | 100.00 | 99.75 | 100.00 | 0.10 | 0.26 | 0.08 | 0.24 | 0.09 | 0.24 | No purity decrease but form change | 99.57 | 99.82 | Area (%) of impurity peak RRT 1.14 ([2]; 60° C., 2 weeks): 0.07%; Area (%) of impurity peak RRT 1.14 ([2]; 60° C., 4 weeks): 0.04%; HPLC Purity (area %), main peak RRT 1.00 ([2]; 60° C./close, 4 weeks): 99.64 area %; HPLC Reults of initial (%) ([2]; 60° C./close, 4 weeks): 99.89%; HPLC Purity (area %), main peak RRT 1.00 ([2]; 60° C./close, 8 weeks): 99.67 area %; HPLC Reults of initial (%) ([2]; 60° C./close, 8 weeks): 99.92%; Area (%) of impurity peak RRT 1.34 ([2]; Initial): 0.25%; HPLC Purity (area %), main peak RRT 1.00 ([2]; Initial): 99.75 area % |
